Converted amounts (≈) assume the structure as drawn. “And” between values parts separate entries of the source, which are not always exact repeats. Equal values may be shown once. Read-outs that look alike come from different tables or passages of the source. Marks after values point to notes of the source that are not given here.

This is an account of results in patent US20260250312A1, “ANTIBACTERIAL COMPOUNDS ELIMINATING DORMANT BACTERIAL CELLS” (UNIVERSITÉ D'AIX-MARSEILLE, priority 2022, published 2026).

Series [1] deals with Pseudomonas aeruginosa (ATCC27853). Briefly: Microdilution MIC assay (CLSI-based), P. aeruginosa. The format is cell-based. As to conditions: 20 hours incubation at 35-37° C., MHB; for MIC: Pseudomonas aeruginosa, ATCC27853, 20 h, read-out: Minimum inhibitory concentration P. aeruginosa ATCC27853. The method, boiled down:
(§1)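 Broth microdilution per modified CLSI guidelines in Mueller Hinton broth, 200 μL, inoculum ca. 5×10^5 CFU/mL; compounds tested as salts, twofold dilutions from 0.2 mg/mL, in triplicate. MIC determined from OD at 620 nm after incubation.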

The subject of series [2] is Enterococcus faecalis (ATCC29212). Briefly: Microdilution MIC assay (CLSI-based), E. faecalis. Format: cell-based. Particulars: 20 hours incubation at 35-37° C., MHB; for MIC: Enterococcus faecalis, ATCC29212, 20 h, read-out: Minimum inhibitory concentration E. faecalis ATCC29212. The method, boiled down: as §1
In general terms: Broth dilution looks for growth in wells or tubes with falling amounts of substance.

Series [3] relates to Escherichia coli (E. coli) persister cells. Briefly: Anti-persister activity test, persister cells. As to conditions: for anti-persister activity (in words): E. coli persister cells, Table 8 conditions; for Persister cell survival rate 96 h: 4 hours treatment; for viability at 125 µM: read-out: Persister cell survival rate 96 h, concentration used 125 μM, 4 hours treatment. Format: cell-based. As to the method:
(§2) Anti-persister activity test: Escherichia coli (E. coli) persister cells were generated and isolated as described by MARQUES, C. N. H. et al. (Applied and Environmental Microbiology 2014, Vol. 80, No. 22, pp. 6976-6991). E. coli persister cells were compared to E. coli non-persister cells. 1 mL persister or non-persister bacteria culture was added in a 1.5 mL microtube with each of the compounds to be tested or ciprofloxacin as a […], and incubated at 37° C. with 160 rpm shaking for 4 hours. After 4 hours treatment with the compounds, the microtubes were centrifuged at 3,500g for 5 minutes and the pellets were resuspended in 1 mL of fresh drug free RM broth (10 g/L M9 salt, 2% casamino acids, 1 mM MgCl2, 1% glycerol). Resuspended bacteria were then plated over LB agar plates and incubated at 37° C. Bacterial colonies were enumerated after 24, 48 and 96 hours to estimate the survival rate.

The next series has as its system CHO-K1 cells. Briefly: WST1 cytotoxicity test. The format is cell-based, Chinese hamster. Put shortly: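 CHO-K1 cells pre-cultured 24 h, then exposed 24 h at 37 °C to increasing compound concentrations. Viability read as WST-1 formazan absorbance at 450 nm after 20 min; dose-response fitted by nonlinear regression.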
(In general: Formazan colour is commonly taken as a measure of viable cells.)

For series [4], the system named is E. coli non-persister cells. Briefly: Anti-persister activity test, non-persister cells. Format: cell-based, Escherichia coli. As to conditions: for Non-persister cell survival rate 96 h: 4 hours treatment; for viability at 125 µM: read-out: Non-persister cell survival rate 96 h, concentration used 125 μM, 4 hours treatment. As to the method:
as §2

The test system of series [5] is Escherichia coli (ATCC28922). Briefly: Microdilution MIC assay (CLSI-based), E. coli. The format is cell-based. Particulars: 20 hours incubation at 35-37° C., MHB; for MIC: Escherichia coli, ATCC28922, 20 h, read-out: Minimum inhibitory concentration E. coli ATCC28922. Put shortly:
as §1

For series [6], the system named is Staphylococcus aureus (ATCC25923). Briefly: Microdilution MIC assay (CLSI-based), S. aureus. Format: cell-based. Particulars: 20 hours incubation at 35-37° C., MHB; for MIC: Staphylococcus aureus, ATCC25923, 20 h, read-out: Minimum inhibitory concentration S. aureus ATCC25923. The method, boiled down:
as §1

Setting [7] is: Cricetulus griseus, CHO-K1, WST1, as printed in Table 8, read-out: Toxicity IC50 CHO.
Setting [8] is: Cricetulus griseus, CHO-K1, 24 h, WST1, 24 hours at 37° C., read-out: IC50 CHO.
Setting [9] is: WST1, 24 hours at 37° C., read-out: IC50 CHO.
Setting [10] is: WST1, Table 8, read-out: Toxicity IC50 CHO.

Regarding `COC(=O)[C@H](NC(=O)CC[C@@H](C)[C@H]1CCC2C3C(CC[C@@]21C)[C@@]1(C)CC[C@H](NCCCNCCCN)C[C@H]1C[C@H]3O)C(C)C` (stereo partly drawn) [Compound S019, methyl ((4R)-4-((3S,5S,7R,10S,13R,17R)-3-((3-((3-aminopropyl)amino)propyl)amino)-7-hydroxy-10,13-dimethylhexadecahydro-1H-cyclopenta[a]phenanthren-17-yl)pentanoyl)-D-valinate], in series [1], the “Minimum inhibitory concentration P. aeruginosa ATCC27853” value was 12.5* μM and 8* μg/mL. Besides, in series [2], the “Minimum inhibitory concentration E. faecalis ATCC29212” value was 25* μM and 16* μg/mL. Also, the “anti-persister activity (in words)” value in series [3] was “very potent anti-persister activity”. Moreover, the “Persister cell survival rate 96 h” value in series [3] (concentration used 250 μM) worked out at 0.0%. In the series with CHO-K1 cells (setting [7]), the IC50 was 97.1 µM. In addition, the “IC50 CHO” value with CHO-K1 cells (WST1, 24 hours at 37° C.) amounted to 60.09 µg/mL (≈ 97.1 µM). In addition, in series [4] (concentration used 250 μM), the “Non-persister cell survival rate 96 h” value was determined as 4.0%. Further, the “Minimum inhibitory concentration E. coli ATCC28922” value in series [5] was 12.5* μM and 8* μg/mL. The “Minimum inhibitory concentration S. aureus ATCC25923” value in series [6] was 6.25* μM and 4* μg/mL.

As to `COC(=O)[C@@H](NC(=O)CC[C@@H](C)[C@H]1CCC2C3C(CC[C@@]21C)[C@@]1(C)CC[C@H](NCCCNCCNCCCN)C[C@H]1C[C@H]3O)C(C)C` (stereo partly drawn) [Compound S013, methyl ((4R)-4-((3S,5S,7R,10S,13R,17R)-3-((3-((2-((3-aminopropyl)amino)ethyl)amino)propyl)amino)-7-hydroxy-10,13-dimethylhexadecahydro-1H-cyclopenta[a]phenanthren-17-yl)pentanoyl)-L-valinate], the MIC is 25 µM and 16 µg/mL in series [1]; 12.5 µM and 8 µg/mL in series [2]; 6.25 µM and 4 µg/mL in series [5]; 6.25 µM and 4 µg/mL in series [6]. Moreover, the “anti-persister activity (in words)” value in series [3] is “both anti-persister and anti-bacterial activities”. Further, the viability at 250 µM came out at 0% in series [3] (Escherichia coli, 4 h, read-out: Persister cell survival rate 96 h, concentration used 250 μM, 4 hours treatment) and 0% in series [4] (Escherichia coli, 4 h, read-out: Non-persister cell survival rate 96 h, concentration used 250 μM, 4 hours treatment). Besides, the “toxicity results (in words)” value with CHO-K1 cells is recorded as “good toxicity results”. In addition, the IC50 with CHO-K1 cells (setting [8]) was 96.3 µM and 63.7 µg/mL; in the series with CHO-K1 cells (setting [7]), 96.3 µM.

For `COC(=O)[C@H]1CCCN1C(=O)CC[C@@H](C)[C@H]1CCC2C3C(CC[C@@]21C)[C@@]1(C)CC[C@H](NCCCNCCNCCCN)C[C@H]1C[C@H]3O` (stereo partly drawn) [Compound S046, methyl ((4R)-4-((3S,5S,7R,10S,13R,17R)-3-((3-((2-((3-aminopropyl)amino)ethyl)amino)propyl)amino)-7-hydroxy-10,13-dimethylhexadecahydro-1H-cyclopenta[a]phenanthren-17-yl)pentanoyl)-D-prolinate], the MIC was 12.5 µM and 8 µg/mL in series [1]; 6.25 µM and 4 µg/mL in series [2]; 12.5 µM and 8 µg/mL in series [5]; 12.5 µM and 8 µg/mL in series [6]. Moreover, the “anti-persister activity (in words)” value in series [3] is given as “very potent anti-persister activity”. In addition, the viability at 125 µM in series [3] (Escherichia coli, 4 h) is 0%; in series [4] (Escherichia coli, 4 h), 0.3%. Moreover, the IC50 is 9.53 µM and 6.29 µg/mL in the series on CHO-K1 cells (setting [8]); 9.53 µM in the series with CHO-K1 cells (setting [7]).

With `COC(=O)[C@H](NC(=O)CC[C@@H](C)[C@H]1CCC2C3C(CC[C@@]21C)[C@@]1(C)CC[C@H](NCCCNCCCN)C[C@H]1C[C@H]3O)C(C)C` (stereo partly drawn) [Compound S048, methyl ((4R)-4-((3S,5S,7R,10S,13R,17R)-3-((3-((3-aminopropyl)amino)propyl)amino)-7-hydroxy-10,13-dimethylhexadecahydro-1H-cyclopenta[a]phenanthren-17-yl)pentanoyl)-D-valinate], in series [1], the “Minimum inhibitory concentration P. aeruginosa ATCC27853” value is 12.5* μM and 8* μg/mL. Moreover, in series [2], the “Minimum inhibitory concentration E. faecalis ATCC29212” value is 25* μM and 16* μg/mL. Also, the “anti-persister activity (in words)” value in series [3] was “both anti-persister and anti-bacterial activities”. Moreover, the “Persister cell survival rate 96 h” value in series [3] (concentration used 125 μM) was 0.0%. The “IC50 CHO” value in the series with CHO-K1 cells (WST1, 24 hours at 37° C.) is 60.09 µg/mL (≈ 97.1 µM). The concentration for half-maximal inhibition (IC50) in the series with CHO-K1 cells (setting [9]) and in the series with CHO-K1 cells (setting [10]) was 97.1 µM in each case. The “Non-persister cell survival rate 96 h” value in series [4] (concentration used 125 μM) turned out to be 0.0%. Besides, in series [5], the “Minimum inhibitory concentration E. coli ATCC28922” value is 6.25* μM and 4* μg/mL. The “Minimum inhibitory concentration S. aureus ATCC25923” value in series [6] is 6.25* μM and 4* μg/mL.

As for `CC[C@H](C)[C@H](NC(=O)CC[C@@H](C)[C@H]1CC[C@H]2[C@@H]3[C@H](O)C[C@@H]4C[C@@H](NCCCNCCNCCCN)CC[C@]4(C)[C@H]3CC[C@]12C)C(=O)OC` [Compound S041, methyl (2S,3S)-2-((4R)-4-((3S,5S,7R,10S,13R,17R)-3-((3-((2-((3-aminopropyl)amino)ethyl)amino)propyl)amino)-7-hydroxy-10,13-dimethylhexadecahydro-1H-cyclopenta[a]phenanthren-17-yl)pentanamido)-3-methylpentanoate], the MIC was 12.5 µM and 8 µg/mL in series [1]; 12.5 µM and 8 µg/mL in series [2]; 12.5 µM and 8 µg/mL in series [5]; 12.5 µM and 8 µg/mL in series [6]. Also, the “anti-persister activity (in words)” value in series [3] is reported as “not as good on persister cells”. For the same compound, the viability at 125 µM is 0.1% in series [3] (Escherichia coli, 4 h) and 0% in series [4] (Escherichia coli, 4 h). The IC50 is 9.8 µM and 6.63 µg/mL in the series on CHO-K1 cells (setting [8]); 9.8 µM in the series on CHO-K1 cells (setting [7]). Moreover, in series [4] (E. coli non-persister cells, Table 8 conditions), the “activity on non-persister cells (in words)” value is “good activity on non-persister cells”.

`COC(=O)[C@H](NC(=O)CC[C@@H](C)[C@H]1CCC2C3C(CC[C@@]21C)[C@@]1(C)CC[C@H](NCCCNCCCN)C[C@H]1C[C@H]3O)C(C)C` (stereo partly drawn) [Compound S047, methyl ((4R)-4-((3S,5S,7R,10S,13R,17R)-3-((3-((3-aminopropyl)amino)propyl)amino)-7-hydroxy-10,13-dimethylhexadecahydro-1H-cyclopenta[a]phenanthren-17-yl)pentanoyl)-D-valinate]: the “Minimum inhibitory concentration P. aeruginosa ATCC27853” value in series [1] was 12.5* μM and 8* μg/mL. Also, the “Minimum inhibitory concentration E. faecalis ATCC29212” value in series [2] was 12.5* μM and 8* μg/mL. For the same compound, the “anti-persister activity (in words)” value in series [3] was “both anti-persister and anti-bacterial activities”. In addition, the viability at 125 µM in series [3] (Escherichia coli, 4 h) stood at 0%; in series [4] (Escherichia coli, 4 h) it was 0%. In addition, the “IC50 CHO” value in the series on CHO-K1 cells (WST1, 24 hours at 37° C.) worked out at 57.61 µg/mL (≈ 93.1 µM). Further, the IC50 in the series with CHO-K1 cells (setting [9]) and in the series with CHO-K1 cells (setting [10]) was 93.1 µM throughout. Further, in series [5], the “Minimum inhibitory concentration E. coli ATCC28922” value is 12.5* μM and 8* μg/mL. Besides, the MIC in series [6] was 6.25 µM and 4 µg/mL.

The term IC50 denotes the concentration that inhibits the measured activity by half.
